Assays:
[1] = test system: T-47D; test: Caspase cascade activation in T-47D cells (N-(Ac-DEVD)-N'-ethoxycarbonyl-R110 fluorogenic substrate); format: cell-based; conditions: T-47D human breast cancer cells, 24 h incubation; for T-47D Ratio (caspase activity): ratio of net RFU of test compound to control
Protocol: (§1) Human breast cancer cell lines T47D and ZR-75-1 were grown according to media component mixtures designated by American Type Culture Collection+10% FCS (Invitrogen Corporation), in approximately 5% CO2-95% humidity incubator at approximately 37° C. T-47D and ZR-75-1 cells were maintained at a cell density between 30 and 80% confluency at a cell density of 0.1 to 0.6×10^6 cells/mL. Cells were harvested at approximately 600×g and resuspended at approximately 0.65×10^6 cells/mL into appropriate media plus approximately 10% FCS. An aliquot of approximately 45 μl of cells was added to a well of a 96-well microtiter plate containing approximately 5 μl of a solution of approximately 10% DMSO in RPMI-1640 media solution containing approximately 0.16 to 10 μM of the test compounds (0.016 to 1 μM final). An aliquot of approximately 45 μl of cells was added to a well of a 96-well microtiter plate containing approximately 5 μl of a solution of approximately 10% DMSO in RPMI-1640 media solution without test compound as the control sample. The samples were mixed by agitation and then incubated at approximately 37° C. for approximately 24 h in approximately 5% CO2-95% humidity incubator. After incubation, the samples were removed from the incubator and approximately 50 μl of a solution containing approximately 20 μM of N-(Ac-DEVD)-N′-ethoxycarbonyl-R110 fluorogenic substrate, SEQ ID NO:1 (Cytovia, Inc.; U.S. Pat. No. 6,335,429), comprising approximately 20% sucrose (Sigma), 20 mM DTT (Sigma), 200 mM NaCl (Sigma), 40 mM Na PIPES buffer at approximate pH 7.2 (Sigma), and approximately 500 μg/ml lysolecithin (Calbiochem) was added. The samples were mixed by agitation and incubated at room temperature. Using a fluorescent plate reader (Model 1420 Wallac Instruments), an initial reading (T=0) was made approximately 1-2 min after addition of the substrate solution, employing excitation at 485 nm and emission at […], to determine the background fluorescence of the control sample. After the 3 h incubation, the samples were read for fluorescence as above (T=3 h).
(§2) The Relative Fluorescence Unit values (RFU) were used to calculate the sample readings as follows: RFU(T=3h)−Control RFU(T=0)=Net RFU(T=3h)
(§3) The activity of caspase cascade activation was determined by the ratio of the net RFU value for the test compounds to that of control samples. The EC50 (nM) was determined by a sigmoidal dose-response calculation (Prism 2.0, GraphPad Software Inc.).

[2] = test system: ZR-75-1; test: Caspase cascade activation in ZR-75-1 cells (N-(Ac-DEVD)-N'-ethoxycarbonyl-R110 fluorogenic substrate); format: cell-based; conditions: ZR-75-1 human breast cancer cells, 24 h incubation; for ZR-75-1 Ratio (caspase activity): ratio of net RFU of test compound to control; for EC50: sigmoidal dose-response
Protocol: as §1, §2, §3

| Molecule | T-47D Ratio (caspase activity) [1] | EC50 ([1]; sigmoidal dose-response) [nM] | ZR-75-1 Ratio (caspase activity) [2] | EC50 [2] [nM] | T-47D EC50 (nM) ([1]; sigmoidal dose-response) |
| --- | --- | --- | --- | --- | --- |
| 2-Amino-3-cyano-4-(3-bromo-4,5-dimethoxyphenyl)-4H-triazo[4,5-h]chromene [Example 1] | 1.8 | > 1000 | 5.3 | 560 |  |
| COc1cc(C2C(C#N)=C(N)Oc3c2ccc2oc(=O)n(C)c32)cc(Br)c1OC (centres unmarked) [Example 3, 2-Amino-3-cyano-4-(3-bromo-4,5-dimethoxyphenyl)-8-oxo-4,8-dihydro-9-methyl-oxazo[5,4-h]chromene] | 1.5 |  | 2.7 |  | Inactive |
| COc1cc(C2C(C#N)=C(N)Oc3c2ccc2[nH]c(=O)oc32)cc(Br)c1OC (centres unmarked) [Example 5, 2-Amino-3-cyano-4-(3-bromo-4,5-dimethoxyphenyl)-8-oxo-4,7,8-trihydro-oxazo[4,5-h]chromene] | 8.6 | 285 | 4.5 | 156 |  |
| COc1cc(C2C(C#N)=C(N)Oc3c2ccc2c3oc(=O)n2C)cc(Br)c1OC (centres unmarked) [Example 6, 2-Amino-3-cyano-4-(3-bromo-4,5-dimethoxyphenyl)-8-oxo-4,8-dihydro-7-methyl-oxazo[4,5-h]chromene] | 6.5 | 11.8 |  |  |  |
| COc1cc(C2C(C#N)=C(N)Oc3c2ccc2ocnc32)cc(Br)c1OC (centres unmarked) [Example 8, 2-Amino-3-cyano-4-(3-bromo-4,5-dimethoxyphenyl)-4H-oxazo[5,4-h]chromene] | 7.9 | 35.1 | 7.2 | 12.9 |  |
| COc1cc(C2C(C#N)=C(N)Oc3c2ccc2oc(=O)[nH]c32)cc(Br)c1OC (centres unmarked) [Example 2, 2-Amino-3-cyano-4-(3-bromo-4,5-dimethoxyphenyl)-8-oxo-4,8,9-trihydro-oxazo[5,4-h]chromene] | 6.4 | 567 | 8.5 | 366 |  |
| COC=NC1=C(C#N)C(c2cc(Br)c(OC)c(OC)c2)c2ccc3ocnc3c2O1 (centres unmarked) [Example 4, 2-Methoxymethylimine-3-cyano-4-(3-bromo-4,5-dimethoxyphenyl)-4H-oxazo[5,4-h]chromene] | 8.1 | 47.2 | 7.9 | 23 |  |
| COc1cc(C2C(C#N)=C(N)Oc3c2ccc2ncoc32)cc(Br)c1OC (centres unmarked) [Example 7, 2-Amino-3-cyano-4-(3-bromo-4,5-dimethoxyphenyl)-4H-oxazo[4,5-h]chromene] | 7.8 | 68.7 | 9.8 | 43 |  |

Reference: US6858607B1, “7,8-fused 4H-chromene and analogs as activators of caspases and inducers of apoptosis and the use thereof” (Cytovia, Inc., priority 2001, dated 2005)
